For one test, the target named is T1, hAChE (Homo sapiens, UniProt P22303).
T1 construct: purchased Sigma C1682
As to the kind of experiment: Ellman AChE inhibition assay, recombinant hAChE. Type of test: biochemical.

Another test deals with T2, Ag hmg AChE (Anopheles gambiae, UniProt Q869C3).
T2 construct: To prepare the Ag homogenate (Ag hmg) 10 Anopheles gambiae mosquitoes were combined; from tissue; host or cells: whole Anopheles gambiae mosquitoes, crude homogenate supernatant
As to the kind of experiment: Ellman AChE inhibition assay, Anopheles gambiae homogenate (Ag hmg). Type of test: biochemical. Particulars: for IC50: pH 7.8, 10 min preincubation; for Human/Ag IC50 ratio (selectivity for AgAChE over hAChE): range over the two AgAChE sources (Ag hmg, Ag ace-1S).

The next test relates to Anopheles gambiae. As to the kind of experiment: Live mosquito contact toxicity, WHO filter paper assay. Type of test: in vivo. Particulars: for Live Mosquito Contact Toxicity MC for 100% lethality at 24 hr: 1 hr exposure to treated filter paper.
The target in the next test is T3, Ag ace-1S (Anopheles gambiae, UniProt Q869C3).
T3 construct: encoding the entire wild type AgAChE protein (ace1, 737 amino acids); made in house; host or cells: Drosophila S2 cells (stably transfected, pMT/V5-His vector), clarified cell lysate
T3 sequence (Q869C3 39-737): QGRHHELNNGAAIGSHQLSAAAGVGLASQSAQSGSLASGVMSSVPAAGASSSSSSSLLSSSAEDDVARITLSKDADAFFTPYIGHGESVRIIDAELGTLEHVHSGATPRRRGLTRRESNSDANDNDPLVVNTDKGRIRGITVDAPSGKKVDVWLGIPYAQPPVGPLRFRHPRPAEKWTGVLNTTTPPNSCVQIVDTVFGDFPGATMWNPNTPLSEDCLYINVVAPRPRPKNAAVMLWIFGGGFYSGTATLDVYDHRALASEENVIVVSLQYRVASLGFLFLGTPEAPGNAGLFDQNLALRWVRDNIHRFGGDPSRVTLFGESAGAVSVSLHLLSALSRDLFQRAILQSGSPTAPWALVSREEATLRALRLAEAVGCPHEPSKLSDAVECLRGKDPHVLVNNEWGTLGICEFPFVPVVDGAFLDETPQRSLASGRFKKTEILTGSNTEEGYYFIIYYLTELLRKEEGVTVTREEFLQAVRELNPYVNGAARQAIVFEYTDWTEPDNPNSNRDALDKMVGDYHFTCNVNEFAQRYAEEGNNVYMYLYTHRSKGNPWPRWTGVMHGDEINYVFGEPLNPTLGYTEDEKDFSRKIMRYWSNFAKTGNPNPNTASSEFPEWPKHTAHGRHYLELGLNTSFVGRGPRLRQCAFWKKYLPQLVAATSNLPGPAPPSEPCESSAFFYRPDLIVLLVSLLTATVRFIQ
As to the kind of experiment: biochemical.

Where [1] appears, read: Ag WT hmg IC50, WT Anopheles gambiae homogenate.
The mark [2] stands for this setting: pH 7.8, 10 min preincubation, read-out: hAChE recomb. IC50.
Where [3] appears, read: WT Anopheles gambiae homogenate, read-out: Ag WT hmg IC50.

Like-named read-outs stand apart in the source and are kept apart here.

By IC50 is commonly meant the concentration that inhibits the measured activity by half.

T2 sequence (Q869C3 39-737): as above
T1 sequence (P22303 32-614): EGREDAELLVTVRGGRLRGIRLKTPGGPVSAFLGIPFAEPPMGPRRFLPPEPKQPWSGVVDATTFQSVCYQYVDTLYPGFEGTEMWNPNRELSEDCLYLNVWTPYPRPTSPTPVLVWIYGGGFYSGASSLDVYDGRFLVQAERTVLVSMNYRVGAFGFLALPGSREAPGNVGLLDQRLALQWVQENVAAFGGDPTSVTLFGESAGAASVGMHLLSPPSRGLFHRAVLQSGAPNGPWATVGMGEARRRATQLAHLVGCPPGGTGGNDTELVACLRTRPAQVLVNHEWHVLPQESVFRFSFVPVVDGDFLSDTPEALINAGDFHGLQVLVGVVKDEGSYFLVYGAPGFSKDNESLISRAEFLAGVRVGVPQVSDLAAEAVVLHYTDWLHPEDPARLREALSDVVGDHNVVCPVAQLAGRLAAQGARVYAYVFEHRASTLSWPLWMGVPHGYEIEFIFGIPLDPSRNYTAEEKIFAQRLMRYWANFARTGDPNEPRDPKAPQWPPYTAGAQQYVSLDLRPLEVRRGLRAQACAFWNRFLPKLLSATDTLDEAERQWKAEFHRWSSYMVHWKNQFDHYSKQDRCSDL

For `CNC(=O)Oc1ccccc1SCC1CCCCC1` [Compound 9b, 2-(cyclohexylmethylthio)phenyl-N-methylcarbamate], the IC50 on hAChE is 10600 nM; against Ag hmg AChE (setting [1]) it was 17500 nM.
For `CCC(CC)C[S+]([O-])c1ccccc1OC(=O)NC` (stereo not shown) [Compound 3b, 2-(2-ethylbutylsulfinyl)phenyl-N-methylcarbamate], the IC50 on hAChE turned out to be 55400 nM; against Ag hmg AChE (setting [1]), 51800 nM. Also, in the test on Anopheles gambiae (at 11 ug/cm^2, 1 hr exposure), the “lethality at 24 h” value is given as 0% at 11.
Regarding `CCC(CC)CSc1ccccc1OC(=O)NC` [Compound 1b, 2-(2-ethylbutylthio)phenyl-N-methylcarbamate], the IC50 is 2.9 nM against Ag ace-1S, 3630 nM on hAChE and 3 nM at Ag hmg AChE (setting [1]). For the same compound, in the test with Anopheles gambiae (at 11 ug/cm^2, 1 hr exposure), the “lethality at 24 h” value stood at 27% at 11. The “Human/Ag IC50 ratio (selectivity for AgAChE over hAChE)” value at Ag hmg AChE is 1200 fold.
With `CCC(CC)COc1ccccc1OC(=O)NC` [Compound 2b, 2-(2-ethylbutoxy)phenyl-N-methylcarbamate], the IC50 was 10 nM at Ag ace-1S, 98800 nM at hAChE and 69 nM against Ag hmg AChE (setting [1]). Further, the “lethality at 24 h” value in the test with Anopheles gambiae (at 11 ug/cm^2, 1 hr exposure) is 27%. Also, the “lethality at 24 h, +PBO” value with Anopheles gambiae (at 11 ug/cm^2, +PBO) is 53%. Besides, at Ag hmg AChE, the “Human/Ag IC50 ratio (selectivity for AgAChE over hAChE)” value is listed as 1,400-9.900 fold.
Consider `CNC(=O)Oc1ccccc1OCC(C)C` [Compound 13b, 2-isobutoxyphenyl-N-methylcarbamate], for which the IC50 against Ag ace-1S is 650 nM; on hAChE, 66900 nM; against Ag hmg AChE (setting [1]) it was 2060 nM. The “lethality at 24 h” value in the test on Anopheles gambiae (at 2.8 ug/cm^2, 1 hr exposure) is 100% at 2.8.
For the compound `CNC(=O)Oc1ccccc1SCC(C)C` [Compound 6b, 2-(isobutylthio)phenyl-N-methylcarbamate], the half-maximal inhibitory concentration (IC50) turned out to be 8110 nM on hAChE and 109 nM at Ag hmg AChE (setting [1]). The “Live Mosquito Contact Toxicity MC for 100% lethality at 24 hr” value in the test on Anopheles gambiae was determined as 11 ug/cm^2. Besides, at Ag hmg AChE, the “Human/Ag IC50 ratio (selectivity for AgAChE over hAChE)” value worked out at 74 fold.
As for `C=C(C)CSc1ccccc1OC(=O)NCC` [Compound 8c, 2-(3-thio-2-methylpropenyl)phenyl-N-ethylcarbamate], the IC50 came out at 54200 nM at hAChE and 13000 nM at Ag hmg AChE (setting [1]). For the same compound, the “lethality at 24 h” value in the test with Anopheles gambiae (at 11 ug/cm^2, 1 hr exposure) is on record as “None at 11”.
For `CCCCCCNC(=O)Oc1cccc(C(C)(C)C)c1` [Compound 1c], the IC50 at hAChE was 696 nM; against Ag hmg AChE (setting [1]), greater than 100000 nM. Moreover, the “lethality at 24 h” value in the test with Anopheles gambiae (at 11 ug/cm^2, 1 hr exposure) is 13% lethal at 11.
With `C=C(Cl)CSc1ccccc1OC(=O)NC` [Compound 14b, 2-(2-chloroallylthio)phenyl-N-methylcarbamate], the values for the IC50 against Ag ace-1S, at hAChE and on Ag hmg AChE (setting [1]) were 264 nM, 3100 nM and 114 nM, respectively. Further, the “Live Mosquito Contact Toxicity MC for 100% lethality at 24 hr” value in the test on Anopheles gambiae was found to be 11 ug/cm^2.
For `CCCCN(CCCC)SN(C)C(=O)Oc1cccc2c1OC(C)(C)C2` [Carbosulfan, reference compound], the IC50 is 10800 nM against Ag ace-1S, 5920 nM on hAChE (setting [2]) and 4100 nM on Ag hmg AChE (setting [3]).
As for `CNC(=O)Oc1ccccc1SCc1ccccc1` [Compound 19b, 2-(benzylthio)phenyl-N-methylcarbamate], the figures for the IC50 at Ag ace-1S, at hAChE and on Ag hmg AChE (setting [1]) were 3840 nM, 15700 nM and 6900 nM, respectively.
Regarding “N-methyl-3-fluoro-5-trifluoromethylphenylcarbamate [Compound 12a]”, the IC50 at Ag ace-1S (recombinant Anopheles gambiae AChE, WT (susceptible) strain, read-out: Ag ace-1S IC50) was 78500 nM; at hAChE (setting [2]), greater than 100000 nM; on Ag hmg AChE (setting [3]) it was greater than 100000 nM. Moreover, the “lethality at 24 h” value with Anopheles gambiae (at 11 ug/cm^2, 1 hr exposure) was “None at 11”.
As for `CNC(=O)Oc1ccccc1OCC1CCCCC1` [Compound 10b, 2-(cyclohexylmethoxy)phenyl-N-methylcarbamate], the IC50 at hAChE and against Ag hmg AChE (setting [1]) was greater than 100000 nM in each case.
With `CNC(=O)Oc1cccc(-c2cn(Cc3ccccc3)nn2)c1` [Compound 13a, N-methyl 3-(1-benzyl-1H-1,2,3-triazol-4-yl)phenyl carbamate], the IC50 is greater than 100000 nM on hAChE and 336000 nM on Ag hmg AChE (setting [1]). Besides, the “lethality at 24 h” value with Anopheles gambiae (at 11 ug/cm^2, 1 hr exposure) was “None at 11”.
In the case of `C=C(C)COc1ccccc1OC(=O)NC` [Compound 20b, 2-(2-methylallyloxy)phenyl-N-methylcarbamate], the results for the IC50 on hAChE and against Ag hmg AChE (setting [1]) were 68700 nM and 1510 nM, respectively. Besides, the “lethality at 24 h” value in the test with Anopheles gambiae (at 11 ug/cm^2, 1 hr exposure) was found to be 93% lethality at 11.
On to `C=C(C)CSc1ccccc1OC(=O)NCCCCCC` [Compound 8d, 2-(3-thio-2-methylpropenyl)phenyl-N-hexylcarbamate], for which the IC50 on hAChE was 6860 nM; at Ag hmg AChE (setting [1]), greater than 100000 nM. In the test with Anopheles gambiae (at 11 ug/cm^2, 1 hr exposure), the “lethality at 24 h” value is on record as “None at 11”.
Regarding `C=C(Br)COc1ccccc1OC(=O)NC` [Compound 21b, 2-(2-bromoallyloxy)phenyl-N-methylcarbamate], the IC50 against Ag ace-1S turned out to be 741 nM; at hAChE it was 31900 nM; on Ag hmg AChE (setting [1]), 1070 nM. For the same compound, the “Live Mosquito Contact Toxicity MC for 100% lethality at 24 hr” value with Anopheles gambiae is 11 ug/cm^2.
Turning to `CC(C)(C)c1cccc(OC(=O)NCc2cn(Cc3ccccc3)nn2)c1` [Compound 1f, N-(1-benzyl-1H-1,2,3-triazol-4-yl)methyl 3-t-butylphenyl carbamate], the IC50 on hAChE and at Ag hmg AChE (setting [1]) was greater than 10000 nM each time. The “Live Mosquito Contact Toxicity MC for 100% lethality at 24 hr” value with Anopheles gambiae came out at 56 ug/cm^2.
As to `CCNC(=O)Oc1cccc(C(C)(C)C)c1` [Compound 1h], the IC50 turned out to be 2410 nM on hAChE and 4000 nM against Ag hmg AChE (setting [1]). In addition, the “Live Mosquito Contact Toxicity MC for 100% lethality at 24 hr” value in the test on Anopheles gambiae stood at 11 ug/cm^2.
As for `CCC(C)CSc1ccccc1OC(=O)NC` (stereo not shown) [Compound 4b, 2-(2-methylbutylthio)phenyl-N-methylcarbamate], the IC50 against Ag ace-1S was found to be 27 nM; at hAChE, 3540 nM; against Ag hmg AChE (setting [1]) it was 30 nM. Also, in the test with Anopheles gambiae (at 11 ug/cm^2, 1 hr exposure), the “lethality at 24 h” value amounted to 70% at 11.
With `C=C(C)CSc1ccccc1OC(=O)N(C)C` [Compound 8e, 2-(3-thio-2-methylpropenyl)phenyl-N,N-dimethylcarbamate], the half-inhibitory concentration (IC50) at hAChE turned out to be 10300 nM; on Ag hmg AChE (setting [1]) it was 5820 nM. Also, the “lethality at 24 h” value in the test on Anopheles gambiae (at 11 ug/cm^2, 1 hr exposure) was “None at 11”.
For `CN(C)C(=O)Oc1cccc(C(C)(C)C)c1` [Compound 1g], the IC50 amounted to 4040 nM on hAChE and 5940 nM at Ag hmg AChE (setting [1]). Besides, in the test with Anopheles gambiae (at 11 ug/cm^2, 1 hr exposure), the “lethality at 24 h” value is recorded as 20% lethal at 11.
Take `CC(C)NC(=O)Oc1cccc(C(C)(C)C)c1` [Compound 1d, N-isopropyl-3-tert-butylphenylcarbamate]: the concentration for half-maximal inhibition (IC50) is 181000 nM on hAChE and 538000 nM against Ag hmg AChE (setting [1]).
Consider `CNC(=O)Oc1ccccc1SC(C)C` [Compound 5b, 2-(isopropylthio)phenyl-N-methylcarbamate], for which the figures for the half-maximal inhibitory concentration (IC50) at hAChE and against Ag hmg AChE (setting [1]) were 943 nM and 33 nM, respectively. The “Live Mosquito Contact Toxicity MC for 100% lethality at 24 hr” value in the test with Anopheles gambiae was 2.8 ug/cm^2.
For `CNC(=O)Oc1ccccc1OCC1CCCC1` [Compound 12b, 2-(cyclopentylmethoxy)phenyl-N-methylcarbamate], the figures for the IC50 on hAChE and against Ag hmg AChE (setting [1]) were greater than 100000 nM and 24600 nM, respectively.
For the compound `C=C(Br)CSc1ccccc1OC(=O)NC` [Compound 15b, 2-(2-bromoallylthio)phenyl-N-methylcarbamate], the IC50 on Ag ace-1S was 173 nM; at hAChE, 1660 nM; against Ag hmg AChE (setting [1]), 248 nM. Also, the “lethality at 24 h” value in the test with Anopheles gambiae (at 56 ug/cm^2, 1 hr exposure) was 93% lethal at 56.
In the case of `CNC(=O)Oc1ccccc1SCC=C(C)C` [Compound 18b, 2-(3-methylbut-2-enylthio)phenyl-N-methylcarbamate], the IC50 worked out at 411 nM against Ag ace-1S, 2700 nM at hAChE and 1180 nM against Ag hmg AChE (setting [1]). In addition, the “Live Mosquito Contact Toxicity MC for 100% lethality at 24 hr” value in the test on Anopheles gambiae amounted to 56 ug/cm^2.
Turning to `CNC(=O)Oc1ccccc1SCC1CCCC1` [Compound 11b, 2-(cyclopentylmethylthio)phenyl-N-methylcarbamate], the IC50 worked out at 391 nM on Ag ace-1S, 6880 nM on hAChE and 1070 nM against Ag hmg AChE (setting [1]).
Turning to `C=C(C)CSc1ccccc1OC(=O)NC` [Compound 8b, 2-(2-methylallylthio)phenyl-N-methylcarbamate], the IC50 turned out to be 165 nM against Ag ace-1S, 9550 nM on hAChE and 124 nM against Ag hmg AChE (setting [1]). Moreover, the “Live Mosquito Contact Toxicity MC for 100% lethality at 24 hr” value in the test on Anopheles gambiae was found to be 2.8 ug/cm^2.
Turning to `CNC(=O)Oc1cccc2c1OC(C)(C)C2` [Carbofuran, reference compound], the IC50 against Ag ace-1S turned out to be 49 nM; at hAChE (setting [2]), 61 nM; at Ag hmg AChE (setting [3]), 22 nM.
With `C#CCNC(=O)Oc1cccc(C(C)(C)C)c1` [Compound 1e, N-propargyl 3-t-butylphenyl carbamate], the figures for the IC50 on hAChE and on Ag hmg AChE (setting [1]) were 205 nM and 339 nM, respectively. Besides, the “Live Mosquito Contact Toxicity MC for 100% lethality at 24 hr” value with Anopheles gambiae is reported as 56 ug/cm^2.
Turning to `CNC(=O)Oc1ccccc1SCC(C)(C)C` [Compound 7b, 2-(neopentylthio)phenyl-N-methylcarbamate], the half-maximal inhibitory concentration (IC50) is 287 nM on Ag ace-1S, 13900 nM at hAChE and 732 nM against Ag hmg AChE (setting [1]). Besides, in the test with Anopheles gambiae (at 11 ug/cm^2, 1 hr exposure), the “lethality at 24 h” value amounted to 33% at 11.
For `C=CCSc1ccccc1OC(=O)NC` [Compound 16b, 2-(allylthio)phenyl-N-methylcarbamate], the IC50 at Ag ace-1S is 36 nM; on hAChE, 1580 nM; at Ag hmg AChE (setting [1]) it was 156 nM. The “Live Mosquito Contact Toxicity MC for 100% lethality at 24 hr” value in the test on Anopheles gambiae was 5.6 ug/cm^2.
Regarding `C/C=C/CSc1ccccc1OC(=O)NC` [Compound 17b, (E)-2-(but-2-enylthio)phenyl-N-methylcarbamate], the IC50 against Ag ace-1S stood at 68 nM; at hAChE, 494 nM; at Ag hmg AChE (setting [1]), 57 nM. Moreover, the “lethality at 24 h” value with Anopheles gambiae (at 5.6 ug/cm^2, 1 hr exposure) is on record as 93% lethal at 5.6.
